In patent US9302999B2, “Substituted triazoles as herbicides” (E. I. DU PONT DE NEMOURS AND COMPANY, priority 2012, dated 2016):

How the values were obtained:
Assay type in all cases: in vivo
[1] = test system: foxtail, giant (giant foxtail, Setaria faberii); assay: Test A pre-/postemergence: foxtail, giant; settings: for Foxtail, Giant plant response rating: Postemergence; for Plant response rating, Foxtail, Giant: Preemergence
Summary of the method: (§1)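 Visual 0–100 injury ratings (0 no effect, 100 complete control) taken about ten days after treatment, relative to untreated controls. Preemergence treatment was a directed soil spray; postemergence plants were 2–10 cm tall at one- to two-leaf stage. Soil: loam/sand blend.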

[2] = test system: pigweed (Amaranthus retroflexus); assay: Test A pre-/postemergence: pigweed; settings: for Pigweed plant response rating: Postemergence; for Plant response rating, Pigweed: Preemergence
Summary of the method: as §1

rice (Oryza sativa) = assay: Test C flooded paddy test: rice; settings: scale 0 to 100 (0 no effect, 100 complete control)
Summary of the method: (§2)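 Greenhouse plants treated at the 2-leaf stage by dosing the flood water (3 cm depth, maintained) were compared with controls after 13 to 15 days and rated 0 to 100, where 100 means complete control; a dash marks no test result.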

[3] = test system: morningglory (Ipomoea spp.); assay: Test A pre-/postemergence: morningglory; settings: for Morningglory plant response rating: Postemergence; for Plant response rating, Morningglory: Preemergence
Summary of the method: as §1

corn (Zea mays) = assay: Test A pre-/postemergence: corn; settings: for Corn plant response rating: Postemergence; for Plant response rating, Corn: Preemergence
Summary of the method: as §1

[4] = test system: sedge, umbrella (small-flower umbrella sedge, Cyperus difformis); assay: Test C flooded paddy test: sedge, umbrella; settings: scale 0 to 100 (0 no effect, 100 complete control)
Summary of the method: as §2

[5] = test system: velvetleaf (Abutilon theophrasti); assay: Test A pre-/postemergence: velvetleaf; settings: for Velvetleaf plant response rating: Postemergence; for Plant response rating, Velvetleaf: Preemergence
Summary of the method: as §1

[6] = test system: wheat (Triticum aestivum); assay: Test A pre-/postemergence: wheat; settings: for Wheat plant response rating: Postemergence; for Plant response rating, Wheat: Preemergence
Summary of the method: as §1

[7] = test system: barnyardgrass (Echinochloa crus-galli); assay: Test A pre-/postemergence: barnyardgrass; settings: for Barnyardgrass plant response rating: Postemergence; for Plant response rating, Barnyardgrass: Preemergence
Summary of the method: as §1

[8] = test system: crabgrass, large (large crabgrass, Digitaria sanguinalis); assay: Test A pre-/postemergence: crabgrass, large; settings: for Crabgrass, Large plant response rating: Postemergence; for Plant response rating, Crabgrass, Large: Preemergence
Summary of the method: as §1

[9] = test system: ducksalad (Heteranthera limosa); assay: Test C flooded paddy test: ducksalad; settings: scale 0 to 100 (0 no effect, 100 complete control)
Summary of the method: as §2

[10] = test system: barnyardgrass (Echinochloa crus-galli); assay: Test C flooded paddy test: barnyardgrass; settings: scale 0 to 100 (0 no effect, 100 complete control)
Summary of the method: as §2

[11] = 125 g ai/ha, 0 to 100 scale, 0 is no effect, 100 is complete control
[12] = 500 g ai/ha, visual rating on 0 to 100 scale (0 no effect, 100 complete control), approximately ten days
[13] = 125 g ai/ha, 0 to 100 scale (0 no effect, 100 complete control)
[14] = 500 g ai/ha, 0 to 100 scale, 0 is no effect, 100 is complete control
[15] = Flood (flooded paddy test), 62 g ai/ha, visual rating after 13 to 15 days
[16] = Flood (flooded paddy test), 125 g ai/ha, visual rating after 13 to 15 days
[17] = Flood (flooded paddy test), 250 g ai/ha, visual rating after 13 to 15 days

COc1nn(-c2ccc(C(F)(F)F)cc2)nc1Cc1cccc(C(F)(F)F)c1 [Compound 29]
Foxtail, Giant plant response rating [1, 11]: 60 | Foxtail, Giant plant response rating [1, 12]: 90 | Plant response rating, Foxtail, Giant [1, 13]: 80 | Plant response rating, Foxtail, Giant [1, 14]: 100 | Pigweed plant response rating [2, 11]: 100 | Pigweed plant response rating [2, 12]: 100 | Plant response rating, Pigweed [2, 13]: 50 | Plant response rating, Pigweed [2, 14]: 90 | Plant response rating, Rice (rice (Oryza sativa); [15]): 0 | Plant response rating, Rice (rice (Oryza sativa); [16]): 0 | Plant response rating, Rice (rice (Oryza sativa); [17]): 0 | Plant response rating, Rice (rice (Oryza sativa); Flood, 31 g ai/ha): 0 | Morningglory plant response rating [3, 11]: 80 | Morningglory plant response rating [3, 12]: 100 | Plant response rating, Morningglory [3, 13]: 0 | Plant response rating, Morningglory [3, 14]: 10 | Corn plant response rating (corn (Zea mays); [11]): 20 | Corn plant response rating (corn (Zea mays); [12]): 20 | Plant response rating, Corn (corn (Zea mays); [13]): 0 | Plant response rating, Corn (corn (Zea mays); [14]): 0 | Plant response rating, Sedge, Umbrella [4, 15]: 60 | Plant response rating, Sedge, Umbrella [4, 16]: 70 | Plant response rating, Sedge, Umbrella [4, 17]: 75 | Plant response rating, Sedge, Umbrella ([4]; Flood, 31 g ai/ha): 50 | Velvetleaf plant response rating [5, 11]: 60 | Velvetleaf plant response rating [5, 12]: 80 | Plant response rating, Velvetleaf [5, 13]: 0 | Plant response rating, Velvetleaf [5, 14]: 50 | Wheat plant response rating [6, 11]: 0 | Wheat plant response rating [6, 12]: 30 | Plant response rating, Wheat [6, 13]: 0 | Plant response rating, Wheat [6, 14]: 0 | Barnyardgrass plant response rating [7, 11]: 20 | Barnyardgrass plant response rating [7, 12]: 40 | Plant response rating, Barnyardgrass [7, 13]: 10 | Plant response rating, Barnyardgrass [7, 14]: 50 | Crabgrass, Large plant response rating [8, 11]: 90 | Crabgrass, Large plant response rating [8, 12]: 90 | Plant response rating, Crabgrass, Large [8, 13]: 90 | Plant response rating, Crabgrass, Large [8, 14]: 100 | Plant response rating, Ducksalad [9, 15]: 0 | Plant response rating, Ducksalad [9, 16]: 0 | Plant response rating, Ducksalad [9, 17]: 0 | Plant response rating, Ducksalad ([9]; Flood, 31 g ai/ha): 0 | Plant response rating, Barnyardgrass [10, 15]: 0 | Plant response rating, Barnyardgrass [10, 16]: 0 | Plant response rating, Barnyardgrass [10, 17]: 20 | Plant response rating, Barnyardgrass ([10]; Flood, 31 g ai/ha): 0

Cc1nn(-c2cccc(C(F)(F)F)c2)nc1Oc1cc(C(F)(F)F)ncn1 [Compound 38]
Foxtail, Giant plant response rating [1, 11]: 0 | Foxtail, Giant plant response rating [1, 12]: 0 | Plant response rating, Foxtail, Giant [1, 13]: 0 | Plant response rating, Foxtail, Giant [1, 14]: 20 | Pigweed plant response rating [2, 11]: 0 | Pigweed plant response rating [2, 12]: 30 | Plant response rating, Pigweed [2, 13]: 0 | Plant response rating, Pigweed [2, 14]: 10 | Plant response rating, Rice (rice (Oryza sativa); [15]): 0 | Plant response rating, Rice (rice (Oryza sativa); [17]): 0 | Morningglory plant response rating [3, 11]: 0 | Morningglory plant response rating [3, 12]: 0 | Plant response rating, Morningglory [3, 13]: 0 | Plant response rating, Morningglory [3, 14]: 0 | Corn plant response rating (corn (Zea mays); [11]): 0 | Corn plant response rating (corn (Zea mays); [12]): 0 | Plant response rating, Corn (corn (Zea mays); [13]): 0 | Plant response rating, Corn (corn (Zea mays); [14]): 0 | Plant response rating, Sedge, Umbrella [4, 15]: 0 | Plant response rating, Sedge, Umbrella [4, 17]: 0 | Velvetleaf plant response rating [5, 11]: 0 | Velvetleaf plant response rating [5, 12]: 60 | Plant response rating, Velvetleaf [5, 13]: 0 | Plant response rating, Velvetleaf [5, 14]: 0 | Wheat plant response rating [6, 11]: 0 | Wheat plant response rating [6, 12]: 0 | Plant response rating, Wheat [6, 13]: 0 | Plant response rating, Wheat [6, 14]: 0 | Barnyardgrass plant response rating [7, 11]: 0 | Barnyardgrass plant response rating [7, 12]: 0 | Plant response rating, Barnyardgrass [7, 13]: 0 | Plant response rating, Barnyardgrass [7, 14]: 0 | Crabgrass, Large plant response rating [8, 11]: 20 | Crabgrass, Large plant response rating [8, 12]: 50 | Plant response rating, Crabgrass, Large [8, 13]: 50 | Plant response rating, Crabgrass, Large [8, 14]: 60 | Plant response rating, Ducksalad [9, 15]: 0 | Plant response rating, Ducksalad [9, 17]: 0 | Plant response rating, Barnyardgrass [10, 15]: 0 | Plant response rating, Barnyardgrass [10, 17]: 0
